{"source": "patent US9034895B2", "about": "“Composition and methods for treating glioblastoma” (University of Washington Through its Center for …, priority 2010, dated 2015)", "key": {"DBT tumors": {"test_system": "DBT tumors", "test": "Lymphocyte and brain macrophage invasion of DBT tumors implanted in mouse brain", "assay_type": "in vivo, mice (BALB/c)", "details": "daily i.p. (40 mg/Kg per FIG. 7), tumors implanted three weeks in mouse brain", "description": "Effect of JWH-451 on the immune cell invasion of syngenic mouse model of astrocytomas tumors (mouse astrocytoma cell implanted into the brain of wild type mice hosts with intact immune systems) was measured. Briefly, mice (BALB/c, 8 week-old, male, Charles River) were used for this study and housed under specific-pathogen-free conditions for at least one week prior to surgery. Twenty-four hours before surgery, 5×10^6 DBT cells were harvested in 10 ml of DMEM supplemented with 10% heat-inactivated FBS, 10 U/ml penicillin and 10 μg/ml streptomycin and seeded in T75 cm^2 cell culture flasks (one flask per mouse). Just before surgery, cells from one flask were detached with trypsin-EDTA, recovered in DMEM supplemented with 10% heat-inactivated FBS, centrifuged/rinsed twice with MEM (serum free) and resuspended at 10^6 cells/u1 of ice-cold MEM (ready for injection). Mice were anesthetized with ketamine/xylazine (given […] i.p., 130 mg/kg ketamine/8.8 mg/kg xylazine) and placed in a stereotactic instrument (David Kopf Instruments, CA) on an isothermal pad (Deltaphase®, Braintree Scientific, Inc, Braintree, Mass.). After midline incision of the scalp, a 25-G needle was used to perform a craniostomy at 2 mm cranial from bregma and 1.5 mm left lateral. […]"}, "GPR124": {"biological_target": "T1, GPR124 (Homo sapiens, UniProt Q96PE1)", "T1 construct": "endogenous in cells; host or cells: T98g human astrocytoma cells", "T1 sequence (Q96PE1 34-1338)": "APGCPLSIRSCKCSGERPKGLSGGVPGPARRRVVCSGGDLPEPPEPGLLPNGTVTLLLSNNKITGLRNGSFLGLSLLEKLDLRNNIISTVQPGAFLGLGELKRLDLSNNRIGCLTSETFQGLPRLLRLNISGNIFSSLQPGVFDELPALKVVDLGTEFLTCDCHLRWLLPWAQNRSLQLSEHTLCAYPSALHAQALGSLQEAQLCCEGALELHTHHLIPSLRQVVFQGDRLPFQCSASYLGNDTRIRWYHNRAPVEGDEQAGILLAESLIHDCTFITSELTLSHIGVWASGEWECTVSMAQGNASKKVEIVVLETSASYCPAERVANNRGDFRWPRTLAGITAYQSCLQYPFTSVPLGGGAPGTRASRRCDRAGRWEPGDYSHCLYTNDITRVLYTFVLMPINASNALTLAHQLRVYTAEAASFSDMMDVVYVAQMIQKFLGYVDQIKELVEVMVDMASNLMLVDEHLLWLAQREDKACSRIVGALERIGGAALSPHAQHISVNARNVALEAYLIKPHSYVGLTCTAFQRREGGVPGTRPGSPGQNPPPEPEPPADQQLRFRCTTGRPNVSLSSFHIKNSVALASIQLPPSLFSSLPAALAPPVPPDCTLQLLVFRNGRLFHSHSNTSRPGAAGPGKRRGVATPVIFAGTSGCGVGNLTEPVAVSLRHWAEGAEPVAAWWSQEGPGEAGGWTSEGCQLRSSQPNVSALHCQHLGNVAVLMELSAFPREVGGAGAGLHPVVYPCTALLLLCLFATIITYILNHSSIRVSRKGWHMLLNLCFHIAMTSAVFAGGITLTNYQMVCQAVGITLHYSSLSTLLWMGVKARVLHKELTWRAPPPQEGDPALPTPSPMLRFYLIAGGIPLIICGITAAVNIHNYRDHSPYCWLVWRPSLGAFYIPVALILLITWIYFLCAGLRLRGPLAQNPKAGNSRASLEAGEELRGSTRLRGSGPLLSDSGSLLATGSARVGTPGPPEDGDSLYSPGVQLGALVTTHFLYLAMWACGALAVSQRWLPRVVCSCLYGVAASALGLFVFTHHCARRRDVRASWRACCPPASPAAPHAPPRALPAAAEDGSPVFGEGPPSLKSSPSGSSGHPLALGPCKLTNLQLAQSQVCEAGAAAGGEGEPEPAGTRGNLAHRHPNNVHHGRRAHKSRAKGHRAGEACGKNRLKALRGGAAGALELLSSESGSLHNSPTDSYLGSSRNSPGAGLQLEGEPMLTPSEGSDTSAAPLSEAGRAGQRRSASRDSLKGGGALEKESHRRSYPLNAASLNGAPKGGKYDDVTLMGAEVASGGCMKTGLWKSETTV", "test": "siRNA knock-down of GPCR candidates, JWH-451 toxicity in T98g cells", "assay_type": "cell-based", "details": "JWH-451 1 μM, siRNA targeting GPR124, viability after three days", "description": "To determine which of the gene candidate encodes for AAI receptors, an siRNA approach is used to knock down each candidate individually to determine which one prevents the toxic effect of JWH-451 and thus encodes for AAI receptors. The prediction is that knocking down AAI receptors prevents the cell death induced by JWH-451. T98g cells were treated with siRNA targeting each of the 39 GPCR gene candidates individually. The first experiment was designed to knock down each GPCR candidate using a mixture of 3 siRNAs thus maximize genetic targeting efficacy. Thus, cells were incubated with siRNA mixtures and then treated with JWH-451 (1 μM) and cell viability measured after three days. Only one mixture of siRNAs (that targeting GPR124) decreased the toxicity of JWH-451. […] Two of the three siRNAs knocked-down GPR124 expression by more than 80% over 4 days (FIG. 3b). […] The killing effect induced by JWH-451 is mediated by GPR124, a AAI receptor."}}, "data": [{"smiles": "CCn1c(C)c(C(=O)c2ccc(C)c3ccccc23)c2ccccc21", "note": "[JWH-451, 1-Ethyl-2-methyl-3-(4-methyl-1-napthoyl)indole]", "values": [{"measurement": "brain macrophage density / number invading DBT tumors", "setting": "DBT tumors", "value": "two fold increase"}, {"measurement": "lymphocyte density / number invading DBT tumors", "setting": "DBT tumors", "value": "two fold increase"}, {"measurement": "JWH-451-induced killing of T98g cells when GPR124 mRNA expression is reduced", "setting": "GPR124", "value": "reduced"}]}]}
